Measurements reported in patent US11998516B2, “Methods and compositions for treating depression using cyclobenzaprine” (TONIX PHARMA HOLDINGS LIMITED, priority 2011, dated 2024).

Assays:
fibromyalgia patients = settings: 10 to 40 mg over a 12-week period; cited from earlier work
[1] = system: patients with fibromyalgia
Protocol: Hospital Anxiety and Depression Scale (HAD). The Hospital Anxiety and Depression Scale (HAD) is a widely used patient self-rated scale with 14 questions (7 “anxiety” and 7 “depression” questions) that ranges from 0-42.
The HAD Depression Subscale score was also analyzed.

[2] = 1-4 mg at bedtime, week 8, p=0.012
[3] = 1-4 mg at bedtime, week 8, p=0.017

Which results are given for CN(C)CCC=C1c2ccccc2C=Cc2ccccc21 [cyclobenzaprine, 3-(5H-dibenzo[a,d]cyclohepten-5-ylidene)-N,N-dimethyl-1-propanamine]?
muscle tightness (fibromyalgia patients): reduction; pain score (fibromyalgia patients): significantly improved; quality of sleep (fibromyalgia patients): significantly improved; total number of tender points (fibromyalgia patients): reduction; HAD depression subscale at week 8 ([1]; 1-4 mg at bedtime, week 8): 4.9; decrease (improvement) of HAD score, baseline to week 8 [1, 2]: 3.3; percent decrease of HAD score, baseline to week 8 [1, 2]: 24.1%; decrease (improvement) of HAD depression subscale, baseline to week 8 [1, 3]: 1.4; percent decrease of HAD depression subscale, baseline to week 8 [1, 3]: 22.2%; HAD score at week 8 ([1]; 1-4 mg at bedtime, week 8, scale range 0-42): 10.4; HAD depression subscale at baseline ([1]; fibromyalgia patients, before treatment): 6.3; HAD score at baseline ([1]; fibromyalgia patients, before treatment, scale range 0-42): 13.7; comparison of change from baseline in HAD scale versus placebo ([1]; week 8, VLD CBP vs placebo groups): did not reveal a significant effect; comparison of change from baseline in HAD Depression subscore versus placebo ([1]; week 8, VLD CBP vs placebo groups, p=0.023): significant improvement
